Test results taken from the OPERA property sets (Mansouri et al. 2018).
Converted amounts (≈) assume the structure as drawn.

Details: for solubility: 25 °C

Compound | logP | solubility
COCC(=O)OCCCS(=O)(=O)c1ccc(S(N)(=O)=O)s1 | -0.14 | 
NS(=O)(=O)c1ccc(SCCO)c(F)c1 | 0.72 | 23.9 mM (≈ 6000 µg/mL)
NS(=O)(=O)c1ccc(S(=O)(=O)CCCCO)c(F)c1 | -0.26 | 
NS(=O)(=O)c1ccc(S(=O)(=O)CCO)c(F)c1 | -0.6 | 11.6 mM (≈ 3300 µg/mL)
CC(C)CNCCS(=O)(=O)c1ccc(S(N)(=O)=O)cc1 | 0.23 | 
Nc1cc(S(N)(=O)=O)ccc1S(=O)(=O)CCCO | -0.48 | 
COC(=O)c1cc(S(N)(=O)=O)ccc1SCCCO | 0.74 | 
CC(=O)OCCS(=O)(=O)c1ccc(S(N)(=O)=O)s1 | 0.11 | 
NS(=O)(=O)c1ccc(SCCCCO)s1 | 0.95 | 34.8 mM (≈ 9300 µg/mL)
NS(=O)(=O)c1ccc(S(=O)(=O)CCCCO)s1 | -0.34 | 
COC(=O)c1cc(S(N)(=O)=O)ccc1S(=O)(=O)CCCO | -0.3 | 
CC(C)(O)CCS(=O)(=O)c1ccc(S(N)(=O)=O)cc1 | -0.09 | 11.4 mM (≈ 3500 µg/mL)
CC(=O)OCCCc1ccc(S(N)(=O)=O)cc1 | 0.98 | 
Nc1cc(S(N)(=O)=O)ccc1S(=O)(=O)CCO | -0.6 | 
CC(=O)OCCCS(=O)(=O)c1ccc(S(N)(=O)=O)s1 | 0.17 | 
COC(=O)c1cc(S(N)(=O)=O)ccc1S(=O)(=O)CCO | -0.47 | 
NS(=O)(=O)c1ccc(S(=O)(=O)CCCO)c(F)c1 | -0.41 | 22.2 mM (≈ 6600 µg/mL)
NS(=O)(=O)c1ccc(S(=O)(=O)CCCO)s1 | -0.36 | 
NS(=O)(=O)c1ccc(SCCO)c([N+](=O)[O-])c1 | 0.38 | 1.8 mM (≈ 500 µg/mL)
CC(=O)OCCCCCc1ccc(S(N)(=O)=O)cc1 | 1.86 | 

The next lines start with the values.

logP | solubility | Compound
0.85 |  | NS(=O)(=O)c1ccc(SCCCO)s1
0.93 | 3.06 mM (≈ 800 µg/mL) | NS(=O)(=O)c1ccc(SCCCCO)cc1
0.36 | 15 mM (≈ 3500 µg/mL) | NS(=O)(=O)c1ccc(SCCO)cc1
0.57 | 64.1 mM (≈ 14700 µg/mL) | NS(=O)(=O)c1ccc(CCCCO)cc1
1.04 | 10.7 mM (≈ 2600 µg/mL) | NS(=O)(=O)c1ccc(CCCCCO)cc1
0.96 | 0.342 mM (≈ 100 µg/mL) | NS(=O)(=O)c1ccc(SCCCO)c([N+](=O)[O-])c1
-0.85 | 24.9 mM (≈ 6600 µg/mL) | NS(=O)(=O)c1ccc(S(=O)(=O)CCO)cc1
 | 7.16 mM (≈ 2100 µg/mL) | NS(=O)(=O)c1ccc(S(=O)(=O)CCCCO)cc1
0.8 | 5.66 mM (≈ 1400 µg/mL) | NS(=O)(=O)c1ccc(SCCCO)cc1
0.17 | 92.9 mM (≈ 20000 µg/mL) | NS(=O)(=O)c1ccc(CCCO)cc1
1.04 | 2.18 mM (≈ 600 µg/mL) | NS(=O)(=O)c1ccc(SCCCCCO)cc1
1.59 |  | NS(=O)(=O)c1ccc(SCCCO)c(Cl)c1
1.4 | 1.45 mM (≈ 400 µg/mL) | CC(C)(O)CCSc1ccc(S(N)(=O)=O)cc1
-0.64 | 25.8 mM (≈ 7200 µg/mL) | NS(=O)(=O)c1ccc(S(=O)(=O)CCCO)cc1
0.99 | 3.39 mM (≈ 900 µg/mL) | NS(=O)(=O)c1ccc(SCCCO)c(F)c1
1.28 | 3.58 mM (≈ 1000 µg/mL) | NS(=O)(=O)c1ccc(SCCCCO)c(F)c1
